From patent US10016406B2, “Indazole inhibitors of the WNT signal pathway and therapeutic uses thereof” (Samumed, LLC, priority 2009, dated 2018) come the findings set out here.

The structures appear in SMILES notation.

This assay concerns Wnt. As to the kind of experiment: Wnt reporter screening assay: SW480 cells stably transduced with SP5 promoter-firefly luciferase lentiviral construct. It is filed as cell-based. The settings on record: Homo sapiens, SW480 colon cancer cells, 24 h after compound addition, normalized to DMSO, read-out: Wnt inhibition, IC50. The source says: Another screening assay for Wnt activity is described as follows. Reporter cell lines can be generated by stably transducing cells of cancer cell lines (e.g., colon cancer) with a lentiviral construct that include a wnt-responsive promoter driving expression of the firefly luciferase gene.
Lentiviral constructs can be made in which the SP5 promoter, a promoter having eight TCF/LEF binding sites derived from the SP5 promoter, is linked upstream of the firefly luciferase gene. The lentiviral constructs can also include a hygromycin resistance gene as a selectable marker. The SP5 promoter construct can be used to transduce SW480 cells, a colon cancer cell line having a mutated APC gene that generates a truncated APC protein, leading to de-regulated accumulation of β-catenin.
Cultured SW480 cells bearing a reporter construct can be distributed at approximately 10,000 cells per well into 384 well multiwell plates. Compounds from a small molecule compound library can then be added to the wells in half-log dilutions using a three micromolar top concentration. A series of control wells for each cell type receive only buffer and compound solvent. Twenty-four hours after the addition of compound, reporter activity for luciferases can be assayed, for example, by addition of the BrightGlo luminescence reagent (Promega) and the Victor3 plate reader (Perkin Elmer). Readings can be normalized to DMSO only treated cells, and normalized activities can then be used in the IC50 calculations.
Regarding `O=C(NC1CCNCC1)c1cncc(-c2ccc3[nH]nc(-c4nc5ccncc5[nH]4)c3c2)c1` [Compound 1, 5-(3-(3H-imidazo[4,5-c]pyridin-2-yl)-1H-indazol-5-yl)-N-(piperidin-4-yl)nicotinamide], the IC50 was over 10000 nM. In the case of `O=C(NCC1CCCCC1)c1cncc(-c2ccc3[nH]nc(-c4nc5ccncc5[nH]4)c3c2)c1` [Compound 2, 5-(3-(3H-imidazo[4,5-c]pyridin-2-yl)-1H-indazol-5-yl)-N-(cyclohexylmethyl)nicotinamide], the IC50 is over 10000 nM.

As to `O=C(NCC1CC1)c1cncc(-c2ccc3[nH]nc(-c4nc5c(-c6cccnc6)cncc5[nH]4)c3c2)c1` [Compound 3, N-(cyclopropylmethyl)-5-(3-(7-(pyridin-3-yl)-3H-imidazo[4,5-c]pyridin-2-yl)-1H-indazol-5-yl)nicotinamide], the IC50 is over 10000 nM. `CCC(=O)Nc1cncc(-c2ccc3[nH]nc(-c4nc5c(-c6cccnc6)cncc5[nH]4)c3c2)c1` [Compound 4, N-(5-(3-(7-(pyridin-3-yl)-3H-imidazo[4,5-c]pyridin-2-yl)-1H-indazol-5-yl)pyridin-3-yl)propionamide]: the IC50 lay in the range of 29 to 50 nM.

For the compound `CC(C)C(=O)Nc1cncc(-c2ccc3[nH]nc(-c4nc5c(-c6cccnc6)cncc5[nH]4)c3c2)c1` [Compound 11, N-(5-(3-(7-(pyridin-3-yl)-3H-imidazo[4,5-c]pyridin-2-yl)-1H-indazol-5-yl)pyridin-3-yl)isobutyramide], the IC50 is 4 nM. `O=C(Nc1cncc(-c2ccc3[nH]nc(-c4nc5c(-c6cccnc6)cncc5[nH]4)c3c2)c1)C1CC1` [Compound 12, N-(5-(3-(7-(pyridin-3-yl)-3H-imidazo[4,5-c]pyridin-2-yl)-1H-indazol-5-yl)pyridin-3-yl)cyclopropanecarboxamide]: the IC50 lay in the range of 26 to 35 nM. As to `CC(C)CC(=O)Nc1cncc(-c2ccc3[nH]nc(-c4nc5c(-c6cccnc6)cncc5[nH]4)c3c2)c1` [Compound 15, 3-methyl-N-(5-(3-(7-(pyridin-3-yl)-3H-imidazo[4,5-c]pyridin-2-yl)-1H-indazol-5-yl)pyridin-3-yl)butanamide], the IC50 was 5.6 nM. As to `O=C(Nc1cncc(-c2ccc3[nH]nc(-c4nc5c(-c6cccnc6)cncc5[nH]4)c3c2)c1)c1ccccc1` [Compound 16, N-(5-(3-(7-(pyridin-3-yl)-3H-imidazo[4,5-c]pyridin-2-yl)-1H-indazol-5-yl)pyridin-3-yl)benzamide], the IC50 fell in the range of 380 to 1170 nM. `CC(C)(C)C(=O)Nc1cncc(-c2ccc3[nH]nc(-c4nc5c(-c6cccnc6)cncc5[nH]4)c3c2)c1` [Compound 17, N-(5-(3-(7-(pyridin-3-yl)-3H-imidazo[4,5-c]pyridin-2-yl)-1H-indazol-5-yl)pyridin-3-yl)pivalamide]: the IC50 lay within 32 to 50 nM. As for `CC(C)(C)CC(=O)Nc1cncc(-c2ccc3[nH]nc(-c4nc5c(-c6cccnc6)cncc5[nH]4)c3c2)c1` [Compound 18, 3,3-dimethyl-N-(5-(3-(7-(pyridin-3-yl)-3H-imidazo[4,5-c]pyridin-2-yl)-1H-indazol-5-yl)pyridin-3-yl)butanamide], the IC50 was in the range of 21 to 39 nM. Consider `O=C(Nc1cncc(-c2ccc3[nH]nc(-c4nc5c(-c6cccnc6)cncc5[nH]4)c3c2)c1)C1CCCCC1` [Compound 19, N-(5-(3-(7-(pyridin-3-yl)-3H-imidazo[4,5-c]pyridin-2-yl)-1H-indazol-5-yl)pyridin-3-yl)cyclohexanecarboxamide], for which the IC50 was 86 to 206 nM. For `CCCC(=O)Nc1cncc(-c2ccc3[nH]nc(-c4nc5c(-c6cccnc6)cncc5[nH]4)c3c2)c1` [Compound 20, N-(5-(3-(7-(pyridin-3-yl)-3H-imidazo[4,5-c]pyridin-2-yl)-1H-indazol-5-yl)pyridin-3-yl)butyramide], the IC50 was determined as 63 nM. With `O=C(Nc1cncc(-c2ccc3[nH]nc(-c4nc5c(-c6cccnc6)cncc5[nH]4)c3c2)c1)C1CCC1` [Compound 21, N-(5-(3-(7-(pyridin-3-yl)-3H-imidazo[4,5-c]pyridin-2-yl)-1H-indazol-5-yl)pyridin-3-yl)cyclobutanecarboxamide] the figure was 29 nM; with `CCCCC(=O)Nc1cncc(-c2ccc3[nH]nc(-c4nc5c(-c6cccnc6)cncc5[nH]4)c3c2)c1` [Compound 23, N-(5-(3-(7-(pyridin-3-yl)-3H-imidazo[4,5-c]pyridin-2-yl)-1H-indazol-5-yl)pyridin-3-yl)pentanamide], 34 to 64 nM.

By IC50 is commonly meant the concentration that inhibits the measured activity by half.
